How the values were obtained:
[1] = molecular target: Human immunodeficiency virus type 1 reverse transcriptase (Human immunodeficiency virus 1, UniProt Q72547); assay: Inhibition of recombinant wild type HIV-1 reverse transcriptase incubated for 40 mins in presence of poly(rA) template/oligo(dT)16 primer by Pico-Green dye based analysis
[2] = tested on: Human immunodeficiency virus 1; assay: Antiviral activity against drug-resistant HIV-1 harboring RT Y181C mutant infected in human MT4 cells assessed as protection against virus-induced cytopathicity measured after 5 days post-infection by MTT assay; assay type: functional, organism-based; conditions: Human immunodeficiency virus 1, MT4, 120 h
[3] = tested on: Human immunodeficiency virus 1; assay: Antiviral activity against drug-resistant HIV-1 harboring RT E138K mutant infected in human MT4 cells assessed as protection against virus-induced cytopathicity measured after 5 days post-infection by MTT assay; assay type: functional, organism-based; conditions: Human immunodeficiency virus 1, MT4, 120 h
[4] = tested on: Human immunodeficiency virus 1; assay: Antiviral activity against drug-resistant HIV-1 harboring RT Y188L mutant infected in human MT4 cells assessed as protection against virus-induced cytopathicity measured after 5 days post-infection by MTT assay; assay type: functional, organism-based; conditions: Human immunodeficiency virus 1, MT4, 120 h
[5] = tested on: Human immunodeficiency virus 1; assay: Antiviral activity against wild-type HIV-1 IIIB infected in human MT4 cells assessed as protection against virus-induced cytopathicity measured after 5 days post-infection by MTT assay; assay type: functional, organism-based; conditions: Human immunodeficiency virus 1, IIIB, MT4, 120 h
[6] = tested on: Human immunodeficiency virus 1; assay: Antiviral activity against drug-resistant HIV-1 harboring RT K103N mutant infected in human MT4 cells assessed as protection against virus-induced cytopathicity measured after 5 days post-infection by MTT assay; assay type: functional, organism-based; conditions: Human immunodeficiency virus 1, MT4, 120 h
[7] = Cytotoxicity against human MT4 cells assessed as reduction in cell viability by MTT assay; assay type: toxicity, cell-based
[8] = tested on: Human immunodeficiency virus 1; assay: Antiviral activity against drug-resistant HIV-1 harboring RT L100I mutant infected in human MT4 cells assessed as protection against virus-induced cytopathicity measured after 5 days post-infection by MTT assay; assay type: functional, organism-based; conditions: Human immunodeficiency virus 1, MT4, 120 h
[9] = tested on: Human immunodeficiency virus 1; assay: Antiviral activity against drug-resistant HIV-1 harboring RT RES056 mutant infected in human MT4 cells assessed as protection against virus-induced cytopathicity measured after 5 days post-infection by MTT assay; assay type: functional, organism-based; conditions: Human immunodeficiency virus 1, MT4, 120 h
[10] = tested on: Human immunodeficiency virus 1; assay: Antiviral activity against drug-resistant HIV-1 harboring RT F227L/V106A mutant infected in human MT4 cells assessed as protection against virus-induced cytopathicity measured after 5 days post-infection by MTT assay; assay type: functional, organism-based; conditions: Human immunodeficiency virus 1, MT4, 120 h
[11] = Selectivity index, ratio of CC50 for cytotoxicity against human MT4 cells to EC50 for antiviral activity against wild-type HIV-1 IIIB infected in human MT4 cells; assay type: toxicity, cell-based; conditions: read-out: Ratio CC50/EC50

Compound	IC50 [1] [nM]	EC50 [2] [nM]	EC50 [3] [nM]	EC50 [4] [nM]	EC50 [5] [nM]	EC50 [6] [nM]	CC50 [7] [nM]	EC50 [8] [nM]	EC50 [9] [nM]	EC50 [10] [nM]	selectivity ratio [11]
Cc1cc(-c2ccc(C#N)cc2)cc(C)c1Nc1ccnc(Nc2ccc(C#N)cc2)n1	340	7.26	8.16	40.5	1.86	2.88	6110	4.02	54.3	796	3280
[2H]C([2H])([2H])c1cc(C#N)cc(C)c1Oc1nc(NC2CCN(Cc3ccc(C(N)=O)cc3)CC2)nc2sccc12	120	47.6	63.5	94.5	8.92	18.1	> 242000	29.2	320	71.5	> 27200
[2H]C([2H])([2H])c1cc(C#N)cc(C)c1Oc1nc(NC2CCN(Cc3ccc(S(N)(=O)=O)cc3)CC2)nc2ccsc12	190	12.1	12.6	12	5.77	3.67	178000	8.56	217	9.97	31200
[2H]C([2H])([2H])c1cc(C#N)cc(C([2H])([2H])[2H])c1Oc1nc(NC2CCN(Cc3ccc(S(N)(=O)=O)cc3)CC2)nc2sccc12	160	11.2	19.5	10.4	6.53	4.28	> 225000	6.44	141	8.79	> 34500
[2H]C([2H])([2H])c1cc(C#N)cc(C([2H])([2H])[2H])c1Oc1nc(NC2CCN(Cc3ccc(S(N)(=O)=O)cc3)CC2)nc2scnc12	190	8.05	10.3	46	2.16	2.2	17900	10.8	86.4	46.4	8290
[2H]C([2H])([2H])c1cc(C#N)cc(C)c1Oc1nc(NC2CCN(Cc3ccc(C(N)=O)cc3)CC2)nc2ccsc12	150	65.3	53.5	59.9	12.8	11.2	> 242000	68.2	887	65.2	> 18900
[2H]C([2H])([2H])c1cc(C#N)cc(C)c1Oc1nc(NC2CCN(Cc3ccc(S(N)(=O)=O)cc3)CC2)nc2sccc12	160	21.2	49.7	55.5	6.39	8.84	> 227000	17.4	148	428	> 35500
[2H]C([2H])([2H])c1cc(C#N)cc(C([2H])([2H])[2H])c1Oc1nc(NC2CCN(Cc3ccc(C(N)=O)cc3)CC2)nc2ccsc12	140	46.8	59.8	57.6	5.11	6.75	> 241000	44.3	1740	78.2	> 47200
[2H]C([2H])([2H])c1cc(C#N)cc(C([2H])([2H])[2H])c1Oc1nc(NC2CCN(Cc3ccc(C(N)=O)cc3)CC2)nc2sccc12	140	53.8	62.3	61.6	4.19	4.58	> 241000	21.6	496	724	> 57500
O=C1Nc2ccc(Cl)cc2[C@@](C#CC2CC2)(C(F)(F)F)O1 [EFAVIRENZ]			8.32			99.2	> 6340	41.8		203	
Cc1ccnc2c1NC(=O)c1cccnc1N2C1CC1 [NEVIRAPINE]			237	> 15000	253	4710	> 15000	1270	> 15000	7320	

— ChEMBL document CHEMBL6134848, “Deuteration Strategy-Inspired Design of Novel Diarylpyrimidine Derivatives as Potent Non-Nucleoside Reverse Transcriptase Inhibitors Featuring Improved Efficacy, Selectivity, and Druggability” (J Med Chem, 2025)
